The values below come from doi:10.1101/2025.02.26.640120v1 (biorxiv, 2025).

Read-outs that look alike come from different tables or passages of the source.

Data set [1] is described as follows: in vitro. Particulars: mouse, att-20 cells.
A short description of data set [2]: in vitro. Set-up: species or system AtT-20. Conditions: mouse, att-20 cells, AtT-20 cell viability at 25µM, % of control.
The test system of another data set is AtT-20. Put plainly: in vitro. Particulars: Ambinter Amb2704313 batch; 24 h.
Another data set has as its target T1, full length USP8 (Homo sapiens, UniProt P40818).
T1 sequence (P40818 1-1118): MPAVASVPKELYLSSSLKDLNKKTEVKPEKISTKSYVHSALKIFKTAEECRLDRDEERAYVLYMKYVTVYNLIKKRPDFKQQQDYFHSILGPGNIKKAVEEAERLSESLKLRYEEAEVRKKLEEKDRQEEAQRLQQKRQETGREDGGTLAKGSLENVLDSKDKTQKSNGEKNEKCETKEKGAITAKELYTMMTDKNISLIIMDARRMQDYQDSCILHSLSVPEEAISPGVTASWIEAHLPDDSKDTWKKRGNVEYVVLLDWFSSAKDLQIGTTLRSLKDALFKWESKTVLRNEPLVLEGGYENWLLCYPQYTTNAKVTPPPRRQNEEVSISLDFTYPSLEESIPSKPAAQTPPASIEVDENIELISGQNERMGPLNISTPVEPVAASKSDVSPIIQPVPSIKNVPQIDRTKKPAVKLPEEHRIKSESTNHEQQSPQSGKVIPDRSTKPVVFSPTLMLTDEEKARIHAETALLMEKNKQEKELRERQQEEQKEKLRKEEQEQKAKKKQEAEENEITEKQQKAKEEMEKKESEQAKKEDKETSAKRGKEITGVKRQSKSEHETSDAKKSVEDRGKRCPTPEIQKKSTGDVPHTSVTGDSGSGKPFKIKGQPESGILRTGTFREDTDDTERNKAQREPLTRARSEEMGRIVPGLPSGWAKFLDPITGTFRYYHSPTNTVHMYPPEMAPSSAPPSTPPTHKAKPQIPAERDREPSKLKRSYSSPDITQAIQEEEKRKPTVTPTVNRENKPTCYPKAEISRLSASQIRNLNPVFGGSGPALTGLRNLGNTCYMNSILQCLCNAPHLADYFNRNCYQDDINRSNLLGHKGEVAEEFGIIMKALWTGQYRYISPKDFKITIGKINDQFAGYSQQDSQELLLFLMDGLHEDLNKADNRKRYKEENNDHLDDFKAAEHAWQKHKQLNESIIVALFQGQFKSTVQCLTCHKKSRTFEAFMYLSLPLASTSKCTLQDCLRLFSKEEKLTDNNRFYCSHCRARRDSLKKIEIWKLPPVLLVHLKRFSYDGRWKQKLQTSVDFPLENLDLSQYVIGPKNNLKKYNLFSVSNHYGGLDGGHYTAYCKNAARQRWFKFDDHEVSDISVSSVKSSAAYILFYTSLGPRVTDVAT
Briefly: Ub-Rho hydrolysis, dose response. The class given is biochemical.

The nature of data set [3]: in vitro. Particulars: mouse, att-20 cells. The source holds these as a separate data set.

In the case of `CC(=O)Oc1c(I)cc(I)cc1C(=O)Nc1ccc(Cl)cc1` [Clioxanide], the viability (commonly a read-out of living cells in per cent, often relative to untreated cells) at 24 h, 25 µM in the data set “in vitro [1]” was found to be 94.2%. Regarding `O=C(Nc1ccc([N+](=O)[O-])cc1Cl)c1cc(Cl)ccc1O` [Niclosamide], the viability at 24 h, 27 µM in “in vitro [1]” amounted to 50%. With `O=C(Nc1cc(Cl)cc(Cl)c1O)c1c(O)c(Cl)cc(Cl)c1Cl` [Oxyclozanide], the viability at 24 h, 25 µM in the data set “in vitro [1]” is 98.1%.

Turning to `O=C(Nc1ccc(Oc2ccc(Cl)cc2)c(Cl)c1)c1cc(I)cc(I)c1O` [Rafoxanide], in “in vitro [2]”, the viability at 24 h, 25 µM was found to be 56.2%. In addition, in the data set with AtT-20, the “AtT-20 cell viability at 25µM, % of control” value is given as 39.3%. Turning to `O=C(Nc1ccc(Cl)cc1)c1cc(I)cc(I)c1O` [ZINC4014104], the concentration for half-maximal inhibition (IC50) (in general, the concentration that inhibits the measured activity by half) at full length USP8 (0.1 µM Ub-Rho) was found to be 11.9 µM. Also, the viability at 24 h, 25 µM in the data set “in vitro [2]” was 58.8%. Regarding `O=C(Nc1cc(Cl)ccc1Cl)c1cc(I)cc(I)c1O` [ZINC4014105], the viability at 24 h, 25 µM in “in vitro [2]” is 95.7%. On full length USP8 (0.1 µM Ub-Rho), `Cc1ccc(NC(=O)c2cc(I)cc(I)c2O)cc1` [ZINC4014108] had a half-maximal inhibitory concentration (IC50) of 14.6 µM. Also, in “in vitro [2]”, the viability at 24 h, 25 µM came to 93.5%. `O=C(Nc1cc(Cl)cc(Cl)c1)c1cc(I)cc(I)c1O` [ZINC4014253]: in “in vitro [2]”, the viability at 24 h, 25 µM came out at 68%. The same measure, in the same setting: next, `O=C(Nc1ccc(Cl)cc1Cl)c1cc(I)cc(I)c1O` [ZINC4181894]: 89.6%. In the case of `O=C(Nc1ccc(Cl)cc1C(=O)c1ccccc1F)c1ccc(=O)[nH]c1` [ZINC9579366], in “in vitro [3]”, the viability at 24 h, 25 µM was determined as 103%. For the compound `O=C(CSc1ccccc1F)Nc1cccc(OCc2ccccn2)c1` [ZINC32922917], the viability at 24 h, 25 µM in the data set “in vitro [2]” was determined as 101%. On to `O=C(NCc1cccc(OCc2ccccn2)c1)c1csc(Br)c1` [ZINC40111866], for which the viability at 24 h, 25 µM in the data set “in vitro [2]” came out at 98.9%.

Regarding `Cc1ccc(NC(=O)Cn2ccccc2=O)c(OCc2ccccc2)c1` [ZINC55784788], the viability at 24 h, 25 µM in “in vitro [3]” amounted to 96%. As to `Cc1ccc(C(=O)c2cc(NC(=O)c3cc(I)cc(I)c3O)ccc2Cl)cc1` [ZINC72119086], in the data set “in vitro [2]”, the viability at 24 h, 25 µM is 109%. Consider `O=C(Nc1ccc(O)cc1)c1cc(I)ccc1O` [ZINC194061705], for which the viability at 24 h, 25 µM in the data set “in vitro [3]” turned out to be 107%. Consider `O=C(Nc1ccccc1)c1ccccc1O` [salicylanilide backbone], for which the concentration for half-maximal inhibition (IC50) against full length USP8 is more than 50 µM.
